In ChEMBL document CHEMBL1139021, “Synthesis of Tic-D-Phe Psi[CH2-CH2] isostere and its use in the development of melanocortin receptor agonists” (Bioorg Med Chem Lett, 2006) one finds Ki, EC50 and Emax data, which are given here for 10 molecules.

pEC50, pKi: −log10 of the molar value. Where a SMILES comes first, the peptide text is derived from it. [ ]: non-standard residue; d: D form. 2Nal = N[C@@H](Cc1ccc2ccccc2c1)C(=O)O

Melanocyte-stimulating hormone receptor, sequence (Q01726 whole entry): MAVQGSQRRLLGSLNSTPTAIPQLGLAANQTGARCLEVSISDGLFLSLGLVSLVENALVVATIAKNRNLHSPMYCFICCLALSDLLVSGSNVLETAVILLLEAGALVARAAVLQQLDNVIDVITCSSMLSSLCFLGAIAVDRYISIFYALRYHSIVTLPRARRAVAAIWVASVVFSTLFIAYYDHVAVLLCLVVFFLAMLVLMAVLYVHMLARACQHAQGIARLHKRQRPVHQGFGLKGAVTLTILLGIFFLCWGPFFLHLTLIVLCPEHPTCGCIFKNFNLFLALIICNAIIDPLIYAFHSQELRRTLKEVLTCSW

One experiment concerns the target Melanocyte-stimulating hormone receptor (Homo sapiens, UniProt Q01726). Nature of the experiment: Binding affinity to MC1 receptor.
In general, pKi refers to −log10 of the Ki, conventionally taken in molar units. With `N=C(N)NCCC[C@H]1C[C@@H](OCc2ccccc2)CN1C(=O)[C@@H](Cc1ccccc1)NC(=O)C1Cc2ccccc2CN1` (single isomer, unassigned), the pKi is 7.52.
Consider `CNC(=O)[C@H](Cc1ccc2ccccc2c1)NC(=O)[C@H](CCCN=C(N)N)NC(=O)[C@@H](Cc1ccccc1)NC(=O)[C@@H]1Cc2ccccc2CN1`, for which the negative-log Ki (pKi) is 5.64.
As to `CNC(=O)[C@H](Cc1ccc2ccccc2c1)NC(=O)[C@H](CCCN=C(N)N)NC(=O)[C@H](CC[C@H](Cc1ccccc1)NC(C)=O)Cc1ccc(F)cc1`, the pKi is 4.63.
Still for that read-out and setting: for `N=C(N)NCCC[C@H]1C[C@@H](OCc2ccccc2)CN1C(=O)[C@H](CC[C@H]1Cc2ccccc2CN1)Cc1ccccc1` the value was 7.15; for `CNC(=O)[C@H](Cc1ccc2ccccc2c1)NC(=O)[C@H](CCCN=C(N)N)NC(=O)[C@H](CC[C@H](Cc1ccc(O)cc1)NC(C)=O)Cc1ccc(F)cc1`, 4.65.
The same measure, in the same setting: as for `CC(=O)N[C@H](Cc1ccc(O)cc1)C(=O)N[C@H](Cc1ccccc1)C(=O)N1C[C@H](OCc2ccccc2)C[C@@H]1CCCN=C(N)N`, the figure is 8.05; as for `CNC(=O)[C@H](Cc1ccc2ccccc2c1)NC(=O)[C@H](CCCN=C(N)N)NC(=O)[C@H](CC[C@H](Cc1ccc(O)cc1)NC(C)=O)Cc1ccccc1`, 5.07; as for `CNC(=O)[C@H](Cc1ccc2ccccc2c1)NC(=O)[C@H](CCCN=C(N)N)NC(=O)[C@H](CC[C@@H]1Cc2ccccc2CN1)Cc1ccccc1`, 5.40.
Still for that read-out and setting: for `CNC(=O)[C@H](Cc1ccc2ccccc2c1)NC(=O)[C@H](CCCN=C(N)N)NC(=O)[C@H](CC[C@H](Cc1ccc(Cl)cc1)NC(C)=O)Cc1ccc(F)cc1` the value was 4.91; for `CNC(=O)[C@H](Cc1ccc2ccccc2c1)NC(=O)[C@H](CCCN=C(N)N)NC(=O)[C@@H](Cc1ccccc1)NC(=O)[C@H](Cc1ccc(O)cc1)NC(C)=O` (Ac-Y[dF]R[2Nal]-NHMe), 5.34.

The target of a further experiment is T1, Melanocortin receptor 4 (Homo sapiens, UniProt P32245). Nature of the experiment: Agonist potency at MC4 receptor. It counts as functional.
T1 sequence (P32245 whole entry): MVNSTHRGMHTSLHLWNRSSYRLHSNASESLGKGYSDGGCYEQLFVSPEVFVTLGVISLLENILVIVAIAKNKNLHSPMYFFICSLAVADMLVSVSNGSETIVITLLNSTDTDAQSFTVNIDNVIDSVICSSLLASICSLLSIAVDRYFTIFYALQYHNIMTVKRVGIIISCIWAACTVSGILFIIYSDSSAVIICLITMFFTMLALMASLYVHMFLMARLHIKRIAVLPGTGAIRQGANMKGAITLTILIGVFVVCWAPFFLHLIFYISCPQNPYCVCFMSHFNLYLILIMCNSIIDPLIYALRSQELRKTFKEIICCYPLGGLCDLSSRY
The term pEC50 denotes the EC50 on a negative log10 scale, so that one unit is a factor of ten. Low values mean a large EC50, high ones a small EC50. The Emax is the maximal effect, on the per cent scale that the assay sets. As for `N=C(N)NCCC[C@H]1C[C@@H](OCc2ccccc2)CN1C(=O)[C@@H](Cc1ccccc1)NC(=O)C1Cc2ccccc2CN1` (single isomer, unassigned), the pEC50 is 7.66 and the Emax is 89%.
For `CNC(=O)[C@H](Cc1ccc2ccccc2c1)NC(=O)[C@H](CCCN=C(N)N)NC(=O)[C@@H](Cc1ccccc1)NC(=O)[C@@H]1Cc2ccccc2CN1`, the negative-log EC50 (pEC50) was 8.00 and the Emax was 81%.
In the same order, the values of `CNC(=O)[C@H](Cc1ccc2ccccc2c1)NC(=O)[C@H](CCCN=C(N)N)NC(=O)[C@H](CC[C@H](Cc1ccccc1)NC(C)=O)Cc1ccc(F)cc1` are 7.70 and 102%.
On to `N=C(N)NCCC[C@H]1C[C@@H](OCc2ccccc2)CN1C(=O)[C@H](CC[C@H]1Cc2ccccc2CN1)Cc1ccccc1`, for which the pEC50 is 6.85 and the Emax worked out at 76%.
The corresponding values for `CNC(=O)[C@H](Cc1ccc2ccccc2c1)NC(=O)[C@H](CCCN=C(N)N)NC(=O)[C@H](CC[C@H](Cc1ccc(O)cc1)NC(C)=O)Cc1ccc(F)cc1` are 8.00 and 91%.
With `CC(=O)N[C@H](Cc1ccc(O)cc1)C(=O)N[C@H](Cc1ccccc1)C(=O)N1C[C@H](OCc2ccccc2)C[C@@H]1CCCN=C(N)N`, the pEC50 was 8.10 and the Emax was determined as 84%.
For `CNC(=O)[C@H](Cc1ccc2ccccc2c1)NC(=O)[C@H](CCCN=C(N)N)NC(=O)[C@H](CC[C@H](Cc1ccc(O)cc1)NC(C)=O)Cc1ccccc1`, the pEC50 was 7.42 and the Emax stood at 90%.
The corresponding values for `CNC(=O)[C@H](Cc1ccc2ccccc2c1)NC(=O)[C@H](CCCN=C(N)N)NC(=O)[C@H](CC[C@@H]1Cc2ccccc2CN1)Cc1ccccc1` are 6.80 and 77%.
In the same order, the values of `CNC(=O)[C@H](Cc1ccc2ccccc2c1)NC(=O)[C@H](CCCN=C(N)N)NC(=O)[C@H](CC[C@H](Cc1ccc(Cl)cc1)NC(C)=O)Cc1ccc(F)cc1` are 6.71 and 100%.
`CNC(=O)[C@H](Cc1ccc2ccccc2c1)NC(=O)[C@H](CCCN=C(N)N)NC(=O)[C@@H](Cc1ccccc1)NC(=O)[C@H](Cc1ccc(O)cc1)NC(C)=O` (Ac-Y[dF]R[2Nal]-NHMe) gave a pEC50 of 7.36.

Another experiment deals with T1, Melanocortin receptor 4. Nature of the experiment: Binding affinity to MC4 receptor.
With `N=C(N)NCCC[C@H]1C[C@@H](OCc2ccccc2)CN1C(=O)[C@@H](Cc1ccccc1)NC(=O)C1Cc2ccccc2CN1` (single isomer, unassigned), the pKi is 7.89.
Molecule `CNC(=O)[C@H](Cc1ccc2ccccc2c1)NC(=O)[C@H](CCCN=C(N)N)NC(=O)[C@@H](Cc1ccccc1)NC(=O)[C@@H]1Cc2ccccc2CN1` gave a pKi of 7.62.
The same measure, in the same setting: as for `CNC(=O)[C@H](Cc1ccc2ccccc2c1)NC(=O)[C@H](CCCN=C(N)N)NC(=O)[C@H](CC[C@H](Cc1ccccc1)NC(C)=O)Cc1ccc(F)cc1`, the figure is 7.43; as for `N=C(N)NCCC[C@H]1C[C@@H](OCc2ccccc2)CN1C(=O)[C@H](CC[C@H]1Cc2ccccc2CN1)Cc1ccccc1`, 7.12; as for `CNC(=O)[C@H](Cc1ccc2ccccc2c1)NC(=O)[C@H](CCCN=C(N)N)NC(=O)[C@H](CC[C@H](Cc1ccc(O)cc1)NC(C)=O)Cc1ccc(F)cc1`, 8.30.
As to `CC(=O)N[C@H](Cc1ccc(O)cc1)C(=O)N[C@H](Cc1ccccc1)C(=O)N1C[C@H](OCc2ccccc2)C[C@@H]1CCCN=C(N)N`, the pKi is 8.00.
The molecule `CNC(=O)[C@H](Cc1ccc2ccccc2c1)NC(=O)[C@H](CCCN=C(N)N)NC(=O)[C@H](CC[C@H](Cc1ccc(O)cc1)NC(C)=O)Cc1ccccc1` had a negative logarithm of the Ki (pKi) of 6.67.
Take `CNC(=O)[C@H](Cc1ccc2ccccc2c1)NC(=O)[C@H](CCCN=C(N)N)NC(=O)[C@H](CC[C@@H]1Cc2ccccc2CN1)Cc1ccccc1`: the pKi was 6.66.
Molecule `CNC(=O)[C@H](Cc1ccc2ccccc2c1)NC(=O)[C@H](CCCN=C(N)N)NC(=O)[C@H](CC[C@H](Cc1ccc(Cl)cc1)NC(C)=O)Cc1ccc(F)cc1` gave a pKi of 6.67.
In turn, `CNC(=O)[C@H](Cc1ccc2ccccc2c1)NC(=O)[C@H](CCCN=C(N)N)NC(=O)[C@@H](Cc1ccccc1)NC(=O)[C@H](Cc1ccc(O)cc1)NC(C)=O` (Ac-Y[dF]R[2Nal]-NHMe) gave a pKi of 6.98.

The target of the next experiment is Melanocortin receptor 3 (Homo sapiens, UniProt P41968). Briefly: Binding affinity to MC3 receptor.
Melanocortin receptor 3, sequence (P41968 whole entry): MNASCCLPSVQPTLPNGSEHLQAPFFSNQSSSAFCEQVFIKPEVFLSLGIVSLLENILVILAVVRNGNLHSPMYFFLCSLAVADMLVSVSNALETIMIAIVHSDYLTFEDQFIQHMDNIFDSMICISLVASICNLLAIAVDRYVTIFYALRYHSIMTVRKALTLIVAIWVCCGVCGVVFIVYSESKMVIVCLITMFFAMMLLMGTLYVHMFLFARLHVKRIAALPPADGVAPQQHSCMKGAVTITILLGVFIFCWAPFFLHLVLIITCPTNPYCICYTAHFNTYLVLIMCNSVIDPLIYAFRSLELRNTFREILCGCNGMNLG
For `N=C(N)NCCC[C@H]1C[C@@H](OCc2ccccc2)CN1C(=O)[C@@H](Cc1ccccc1)NC(=O)C1Cc2ccccc2CN1` (single isomer, unassigned), the negative logarithm of the Ki (pKi) was 6.33.
The same measure, in the same setting: as for `CNC(=O)[C@H](Cc1ccc2ccccc2c1)NC(=O)[C@H](CCCN=C(N)N)NC(=O)[C@@H](Cc1ccccc1)NC(=O)[C@@H]1Cc2ccccc2CN1`, the figure is 5.79; as for `CNC(=O)[C@H](Cc1ccc2ccccc2c1)NC(=O)[C@H](CCCN=C(N)N)NC(=O)[C@H](CC[C@H](Cc1ccccc1)NC(C)=O)Cc1ccc(F)cc1`, 4.26.
The same measure, in the same setting: as for `N=C(N)NCCC[C@H]1C[C@@H](OCc2ccccc2)CN1C(=O)[C@H](CC[C@H]1Cc2ccccc2CN1)Cc1ccccc1`, the figure is 6.42.
On to `CNC(=O)[C@H](Cc1ccc2ccccc2c1)NC(=O)[C@H](CCCN=C(N)N)NC(=O)[C@H](CC[C@H](Cc1ccc(O)cc1)NC(C)=O)Cc1ccc(F)cc1`, for which the pKi was 5.21.
Same read-out and setting: as for `CC(=O)N[C@H](Cc1ccc(O)cc1)C(=O)N[C@H](Cc1ccccc1)C(=O)N1C[C@H](OCc2ccccc2)C[C@@H]1CCCN=C(N)N`, the figure is 7.64; as for `CNC(=O)[C@H](Cc1ccc2ccccc2c1)NC(=O)[C@H](CCCN=C(N)N)NC(=O)[C@H](CC[C@H](Cc1ccc(O)cc1)NC(C)=O)Cc1ccccc1`, 4.61; as for `CNC(=O)[C@H](Cc1ccc2ccccc2c1)NC(=O)[C@H](CCCN=C(N)N)NC(=O)[C@H](CC[C@@H]1Cc2ccccc2CN1)Cc1ccccc1`, 5.62.
The molecule `CNC(=O)[C@H](Cc1ccc2ccccc2c1)NC(=O)[C@H](CCCN=C(N)N)NC(=O)[C@H](CC[C@H](Cc1ccc(Cl)cc1)NC(C)=O)Cc1ccc(F)cc1` showed a pKi of 4.74.
`CNC(=O)[C@H](Cc1ccc2ccccc2c1)NC(=O)[C@H](CCCN=C(N)N)NC(=O)[C@@H](Cc1ccccc1)NC(=O)[C@H](Cc1ccc(O)cc1)NC(C)=O` (Ac-Y[dF]R[2Nal]-NHMe) had a pKi of 5.76.
